Test results reported in ChEMBL document CHEMBL1146329, “Structure-activity relationship in the 3-iodo-4-phenoxypyridinone (IOPY) series: The nature of the C-3 substituent on anti-HIV activity” (Bioorg Med Chem Lett, 2007).

Experiments:
[1] = system: Human immunodeficiency virus 1; assay: Antiviral activity against HIV1 LAI assessed as inhibition of viral-induced cytopathicity in MT4 cells by MTT method; assay type: functional, organism-based; details: Human immunodeficiency virus 1, LAI
[2] = Selectivity index, ratio of CC50 for MT4 cells to IC50 for HIV1 LAI; assay type: functional
[3] = system: Human immunodeficiency virus 1; assay: Antiviral activity against HIV1 RT 188L mutant assessed as inhibition of viral-induced cytopathicity in MT4 cells by MTT method; assay type: functional, organism-based; details: Human immunodeficiency virus 1, MT4
[4] = system: Human immunodeficiency virus 1; assay: Antiviral activity against HIV1 RT 103N/181C mutant assessed as inhibition of viral-induced cytopathicity in MT4 cells by MTT method; assay type: functional, organism-based; details: Human immunodeficiency virus 1, MT4
[5] = system: Human immunodeficiency virus 1; assay: Antiviral activity against HIV1 RT 100I mutant assessed as inhibition of viral-induced cytopathicity in MT4 cells by MTT method; assay type: functional, organism-based; details: Human immunodeficiency virus 1, MT4
[6] = system: Human immunodeficiency virus 1; assay: Antiviral activity against HIV1 with RT 103N mutant assessed as inhibition of viral-induced cytopathicity in MT4 cells by MTT method; assay type: functional, organism-based; details: Human immunodeficiency virus 1, MT4
[7] = system: Human immunodeficiency virus 1; assay: Antiviral activity against HIV1 RT 181C mutant assessed as inhibition of viral-induced cytopathicity in MT4 cells by MTT method; assay type: functional, organism-based; details: Human immunodeficiency virus 1, MT4
[8] = system: Human immunodeficiency virus 1; assay: Antiviral activity against HIV1 RT 100I/103N mutant assessed as inhibition of viral-induced cytopathicity in MT4 cells by MTT method; assay type: functional, organism-based; details: Human immunodeficiency virus 1, MT4

SMILES | IC50 [1] [µM] | Ratio CC50/IC50 [2] | IC50 [3] [µM] | IC50 [4] [µM] | IC50 [5] [µM] | IC50 [6] [µM] | IC50 [7] [µM] | IC50 [8] [µM]
CCc1c(Oc2cc(C)cc(C)c2)cc(=O)[nH]c1C | 0.398 |  |  |  |  |  |  | 
CCc1c(C)[nH]c(=O)c(/C=N/O)c1Oc1cc(C)cc(C)c1 | 0.0316 |  |  |  |  |  |  | 
CCc1c(C)[nH]c(=O)c(CO)c1Oc1cc(C)cc(C)c1 | 0.0199 | 5012 |  |  |  |  |  | 
CCc1c(C)[nH]c(=O)c(SC)c1Oc1cc(C)cc(C)c1 | 0.00199 | 25119 | 0.125 | 0.0316 | 0.0199 | 0.0316 | 0.0316 | 0.0631
CCc1c(C)[nH]c(=O)c(Sc2ccccc2)c1Oc1cc(C)cc(C)c1 | 0.01 | 5012 | 0.794 | 1.58 | 0.125 | 0.794 | 0.158 | 1.58
CCc1c(C)[nH]c(=O)c(OC)c1Oc1cc(C)cc(C)c1 | 0.0025 | 39811 | 0.794 | 0.501 | 0.0316 | 0.0794 | 0.158 | 0.316
CCc1c(C)[nH]c(=O)c(C(F)(F)F)c1Oc1cc(C)cc(C)c1 | 0.0031 | 12589 | 0.199 |  | 0.0316 | 0.0125 | 0.0501 | 
CCc1c(C)[nH]c(=O)c(I)c1Oc1cc(C)cc(C)c1 | 0.00125 | 9000 | 0.0501 | 0.0398 | 0.00631 | 0.00316 | 0.0199 | 0.0199
C/C=C/c1c(Oc2cc(C)cc(C)c2)c(CC)c(C)[nH]c1=O | 0.0398 |  |  |  |  |  |  | 
CCc1c(C)[nH]c(=O)c(C#Cc2ccccc2)c1Oc1cc(C)cc(C)c1 | 15.8 |  |  |  |  |  |  | 
CCSc1c(Oc2cc(C)cc(C)c2)c(CC)c(C)[nH]c1=O | 0.125 |  |  |  |  |  |  | 
CCc1c(C)[nH]c(=O)c(C(=O)N(C)C)c1Oc1cc(C)cc(C)c1 | 5.02 |  |  |  |  |  |  | 
CCc1c(C)[nH]c(=O)c(C#N)c1Oc1cc(C)cc(C)c1 | 0.0794 |  |  |  |  |  |  | 
CCc1c(C)[nH]c(=O)c(Br)c1Oc1cc(C)cc(C)c1 | 0.00199 | 90119 | 0.631 | 0.158 |  | 0.0398 | 0.0631 | 0.0631
CCc1c(C)[nH]c(=O)c(Cl)c1Oc1cc(C)cc(C)c1 | 0.0063 | 10000 | 0.398 |  | 0.0316 | 0.0199 | 0.1 | 
C=Cc1c(Oc2cc(C)cc(C)c2)c(CC)c(C)[nH]c1=O | 0.0031 | 6309 | 0.0125 | 0.2 | 0.0063 | 0.0031 | 0.0199 | 
CCc1c(C)[nH]c(=O)c(SCCC(N)=O)c1Oc1cc(C)cc(C)c1 | 0.0125 | 1995 | 2.51 |  | 0.158 | 0.316 | 0.794 | 
CCc1c(C)[nH]c(=O)c(C2CC2)c1Oc1cc(C)cc(C)c1 | 0.0063 | 1259 | 0.158 |  | 0.0398 | 0.199 | 0.158 | 
CCOC(=O)c1c(Oc2cc(C)cc(C)c2)c(CC)c(C)[nH]c1=O | 0.631 |  |  |  |  |  |  | 
CCOC(=O)/C=C/c1c(Oc2cc(C)cc(C)c2)c(CC)c(C)[nH]c1=O | 6.31 |  |  |  |  |  |  | 
CCc1c(C)[nH]c(=O)c(/C=C/CO)c1Oc1cc(C)cc(C)c1 | 0.0631 |  |  |  |  |  |  | 
CCc1c(C)[nH]c(=O)c(/C=C/I)c1Oc1cc(C)cc(C)c1 | 0.1 |  |  |  |  |  |  | 
CCc1c(C)[nH]c(=O)c(-c2ccco2)c1Oc1cc(C)cc(C)c1 | 0.0158 | 126 |  |  |  |  |  | 
CCc1c(C)[nH]c(=O)c(CC)c1Oc1cc(C)cc(C)c1 | 0.0031 | 3162 | 0.0631 |  | 0.0125 | 0.0398 | 0.0398 | 
CCc1c(C)[nH]c(=O)c(-c2ccsc2)c1Oc1cc(C)cc(C)c1 | 0.0501 |  |  |  |  |  |  | 
CCc1c(C)[nH]c(=O)c([S+](C)[O-])c1Oc1cc(C)cc(C)c1 (stereo unspecified) | 0.0158 | 6309 |  |  |  |  |  | 
CCc1c(C)[nH]c(=O)c(C(C)C)c1Oc1cc(C)cc(C)c1 | 0.0199 | 5012 | 0.0316 |  | 0.0125 | 0.0398 | 0.0398 | 
O=C1Nc2ccc(Cl)cc2C(C#CC2CC2)(C(F)(F)F)O1 (single isomer, unassigned) [EFAVIRENZ] |  |  |  |  |  |  |  | 1
